Data as given in a melting point compilation (Tetko et al.; mined from patent text by program, amines drawn as free bases though some values may be those of a salt).
Residues, ends and D or L forms follow the SMILES beside them. *: point of attachment. PhAc = O=C(Cc1ccccc1)*; NHNH2 = NN*

Row | Compound | melting point [°C]
1 | COc1ccc(CCN(C)CCCC2(c3ccc(OC)c(OC)c3)S(=O)(=O)CCCS2(=O)=O)cc1OC | 144
2 | COC(=O)Cc1ccc(OCCNC(=O)C2Cc3ccccc3N2S(=O)(=O)c2ccc(-c3cc(C(F)(F)F)ccc3Cl)cc2)c(OC)c1 (stereo unspecified) | 51 to 58
3 | Nc1cc(C(F)(F)F)cc(C(F)(F)F)n1 | 70.8 to 71.2
4 | C=CC[C@H](C(N)=O)[C@@H](CC(C)C)C(=O)NC1N=C(N2CCCCCC2)c2ccccc2N(C)C1=O (stereo partly specified) | 232 to 237
5 | O=C1CCC(c2ccc(OC(F)(F)F)cc2)N1 (stereo unspecified) | 105 to 106
6 | COCc1nnc(N)s1 | 177 to 179
7 | CC(C)(C)CNc1cc(Cl)nc(NC(C)(C)C)n1 | 110 to 111
8 | OCc1c(F)c(F)c(Br)c(F)c1F | 60 to 62
9 | CCCCc1nc2c(N)nc3cc(-c4ccccc4)ccc3c2n1CC(C)C | > 250
10 | C=CCCOc1ccc(CCCOC(=O)NS(=O)(=O)NCCOC(C)C)c(Oc2ncc(C(F)(F)F)cc2Cl)c1 | 111 to 113
11 | O=C1c2ccccc2C(=O)N1CCn1nc(O)c2[nH]c3cc(Cl)ccc3c(=O)c2c1=O | 349 to 352
12 | NCC(O)CNC(=O)CCCCCCCCCCCO (stereo unspecified) | 119
13 | CCCCCCCCCCC(NC(=O)NC12CC3CC(CC(C3)C1)C2)C(=O)OC (stereo unspecified) | 75
14 | COCCOc1ccc(CCCOC(=O)NS(=O)(=O)c2ccccc2)c(Oc2ncc(C(F)(F)F)cc2Cl)c1 | 174 to 177
15 | Cc1c(C(=O)Nc2ccc(N3CCCN(CCO)CC3)c(C#N)c2)cnn1-c1ccc(F)cc1 | 124
16 | CC1(C)C(C)(C)C1(Cl)c1ccc2c(c1)OCO2 | 110 to 112
17 | O=C1CCN(Cc2ccccn2)CC1C(c1ccccc1)c1ccccc1 (stereo unspecified) | 100
18 | CCOP(=O)(OCC)Oc1cc(CC)ccc1C1CCN(CCCCNC(=O)c2ccc(NC(=O)c3ccc(Cl)cc3)cc2)CC1 | 158 to 160
19 | COCOc1cc2c(c3ccccc13)Nc1ccccc1S2 | 103
20 | Fc1ccc(Nc2nc(NC3CCOCC3)nc(OCC(F)(F)F)n2)cc1Cl | 190 to 191
21 | COC(=O)CC[C@H](NC(=O)c1ccc(C#Cn2cnc3nc(NC(=O)C(C)(C)C)cc-3c2O)cc1)C(=O)OC | 280 to 285
22 | CN1Cc2c(C#Cc3ccccc3)ncn2-c2cccc(Br)c2C1=O | 207 to 209

Row | Compound | melting point [°C]
23 | COc1ccc(C(=O)c2ccc(OCc3ccccc3)nc2)c(OC(C)(C)C(=O)OC(C)(C)C)c1 | 58 to 60
24 | CCCCCCCCCCCCCCCCNC(=O)c1ccc(-n2oc(C(C)(C)C)c(COc3ccc(N)cc3)c2=O)c([N+](=O)[O-])c1 | 220
25 | COc1cc(Nc2c(C#N)cnc3cc(-c4cccc(CCN5CCOCC5)c4)c(OC)cc23)c(Cl)cc1Cl | 193 to 195
26 | Cn1nc(Br)c([N+](=O)[O-])c1NC(C)(C)C | 75 to 77
27 | Cc1cc(F)cc([N+](=O)[O-])c1N | 111 to 113
28 | CCCCCCCCCCCCCCCCSC1OC(C)C(OC(C)=O)C(OC(C)=O)C1OC(C)=O (stereo unspecified) | 49 to 50
29 | CC(C)Cn1c(-c2ccccc2)nc2cnc3ccccc3c21 | 139 to 140
30 | N#Cc1cnc2c(oc3ccccc32)c1Nc1ccc(Oc2ccccc2)cc1 | 175 to 179
31 | CCc1[nH]c(=O)c(C#N)cc1-c1ccncc1 | > 300
32 | CNC(=O)n1c(N=Cc2ccc([N+](=O)[O-])o2)nc2ccccc21 | 170 to 171
33 | Cc1n[nH]c2c1c(=O)n(-c1ccccc1)c1ncccc21 | > 300
34 | CCOC(=O)c1cc(COc2cc3ncnc(Nc4ccc(Cl)cc4F)c3cc2OC)ccn1 | 212 to 214
35 | C=CC(=O)NC(=O)NCCCl | 156 to 158
36 | CS(=O)(=O)c1ncc2n1-c1ccc(Cl)cc1C(c1ccccc1F)=[N+]([O-])C2 | 219 to 220
37 | Cc1ccc(CN2CCOCC2)cn1 | 51 to 52
38 | CCCC(=O)NS(=O)(=O)c1ccc(NC(=O)N2CCc3c(OC)ccc(N4CCN(C)CC4)c3C2)cc1 | 185 to 190
39 | COc1cc2c(cc1OC)C(C)C(C)=NN=C2c1cccc(Cl)c1 (stereo unspecified) | 156 to 158
40 | Cc1ccc2c(c1)COC21CCN(CCCCCCN2CCC3(CC2)OCc2cc(C)ccc23)CC1 | 113 to 116
41 | COc1cc(-c2cccc(Cl)c2)c2cc(C(O)(c3ccc(Cl)cc3)c3nnc(S)n3C)ccc2n1 (stereo unspecified) | > 260
42 | C=CCN1CCN2c3ccccc3Cn3cccc3C2C1 (stereo unspecified) | 130 to 132
43 | COc1ccc2nc3c(cc2c1)c(C(N)=O)nn3C | 268 to 270
44 | Cc1c(C)c2c(c(C)c1N)CC(C)(CN1CCC(OCc3ccccc3)CC1)O2 (stereo unspecified) | 85 to 86

Row | Compound | melting point [°C]
45 | CNC1CN(c2c(F)c(N)c3c(=O)c(C(=O)O)cn(-c4nc(N)c(F)cc4F)c3c2Cl)C1 | 204 to 213
46 | O=C(NCC(F)(F)F)C1(CCCCc2ccc(NS(=O)(=O)c3ccc([N+](=O)[O-])cc3)cc2)c2ccccc2-c2ccccc21 | 136 to 138
47 | COc1ccc(C(O)CNC(=O)C(N)=O)cc1OC1CCCC1 (stereo unspecified) | 180 to 181
48 | O=Cc1cc(Oc2c(Cl)cc(C(F)(F)F)cc2Cl)ccc1[N+](=O)[O-] | 115
49 | COc1ccc2c(c1)Sc1ccccc1CN2C=O | 98 to 100
50 | Fc1ccc(-c2cc(Cl)c3cc(Cl)ccc3n2)cc1 | 150 to 156
51 | CCCC(=O)NS(=O)(=O)c1cccc(-c2cccc(-c3cc(-c4ccc(C(F)(F)F)cc4)cc(C)n3)n2)c1 | 188
52 | CCCc1noc(/C=C/c2cn(-c3ccccc3)nc2OCc2ccc(OCc3nc(-c4ccco4)oc3C)c(OC)c2)n1 | 192 to 193
53 | Cc1ccc(C(c2ccc(C)cc2)N2CCCC2)cc1 | 61 to 63
54 | CCc1[nH]c(=O)[nH]c1C(=O)C(C)C | 206 to 208
55 | O=C1CC(O)c2ccc(F)cc21 (stereo unspecified) | 73 to 76
56 | COc1cnn(-c2cccc(COc3ccccc3)c2)c(=O)c1OC | 82 to 85
57 | Cn1nnc(-c2cn(C)c3ccccc3c2=O)n1 | 189 to 192
58 | Cc1c(C)c2c(c(C)c1OCc1ccccc1)C(c1ccc(N(C)C)cc1)C(C)(C)O2 (stereo unspecified) | 110 to 112
59 | CCCCC(=O)Nc1ccc(Cl)c(-n2nc(CC)n(Cc3ccc(-c4ccccc4S(=O)(=O)NC(=O)OC(C)(C)C)cc3F)c2=O)c1 | 143 to 145
60 | OC(COC1CCCCO1)(Cn1cncn1)c1ccc(Cl)cc1 (stereo unspecified) | 70
61 | N#Cc1onc(-c2ccccc2)c1-c1ccc(S(N)(=O)=O)cc1 | 218 to 219
62 | O=c1c2sc3ccccc3c2oc2cc(O)cc(O)c12 | > 300
63 | CC(C)OC(=O)C(C(=O)Nc1nccs1)=C1SCS1 | 174 to 175
64 | CC1COCc2nc3c(N)nc4c(c3n21)CCCC4 (stereo unspecified) | 209 to 211
65 | NCCN1CCC(c2n[nH]c3cc(F)ccc23)CC1 | 125 to 128
66 | CCSc1nc(O)nn1CC | 65 to 68

Continued, values first:

Row | melting point [°C] | Compound
67 | 75.8 | Cc1ccc(CSCCC(=O)O)cc1
68 | 55 | O=c1cccccc1S
69 | 86 | CCC(=O)Nc1ccccc1C(F)(F)F
70 | 206 to 207 | CCCCn1nc2c(N)nc3ccccc3c2c1CCCS(=O)(=O)c1ccccc1
71 | 230 | C#CCOc1ccc2c(C(=O)OCC)cc(=O)oc2c1
72 | 142 to 143 | CC(NC(=O)C1CCCN1C(=O)Cc1ccccc1)C(=O)NN (stereo not drawn) (PhAc-Pro-Ala-NHNH2; configuration not given here)
73 | 86 to 89 | CCCNC(=O)c1ccccc1N=C(NC(=O)c1ccccc1)SC
74 | 157 to 158 | CCN(CC)Cc1ccc2c(c1)-c1[nH]nc(-c3ccsc3)c1C2
75 | 193 to 194 | N=C(N)Nc1nc(CSCCC(N)=O)cs1
76 | 78 to 80 | Cc1ccc(C2CCN(C(=O)CCC(=O)c3ccc4c(c3)CN(C(C)C)CC4)CC2)cc1
77 | 74 to 79 | OC(CSCc1ccc(Cl)cc1)C12CC3CC(CC(C3)C1)C2 (stereo unspecified)
78 | 232 to 233 | CSc1ncc(Oc2ccc(Cl)cc2)c(=O)[nH]1
79 | 83 to 84 | COC(c1ccccc1)C1CCCCCC(Cc2ccccc2)C1=O (stereo unspecified)
80 | 196 | CCN(CC)C(=O)c1ccc(Cl)c(Cl)c1Br
81 | 108 to 112 | COC(=O)c1cc(OCc2ccccc2)ccc1O
82 | 280 to 282 | CCOC(=O)c1cc2c3n(ccc-2n1)C(Br)C=N3 (stereo unspecified)
83 | 95 to 97 | Cc1ccc(Oc2ccc(Br)cc2O)c(O)c1
84 | 129 to 132 | O=C1CCCc2nc3ccccc3c(NCCc3ccccc3)c21

Row | melting point [°C] | Compound
85 | 43 to 46 | CN(C)CCCCCCOc1ccc(C(=O)/C=C/c2ccccc2)cc1
86 | 88 to 119 | COC(=O)c1cc(CBr)cnc1C1=NC(C)(C(C)C)C(=O)N1C(=O)c1ccccc1 (stereo unspecified)
87 | 97 | CCOC(=O)c1cn2cccc(C(=O)OCC)c2n1
88 | 237 | Cc1c(Cl)ccc2c3cccc(C(=O)O)c3n(C)c12
89 | 109 to 111 | COCOc1c(NC(=O)N(CCCCCC(=O)O)c2ccccc2)cc(OC)cc1C(C)(C)C
90 | 145 to 147 | CCc1ccc(S(C)(=O)=O)c(C(=O)c2ccc(F)cc2)c1
91 | 120 to 121 | Cc1ccccc1-n1ccc(=O)c(-c2ccnn2-c2ccccc2)n1
92 | 110 | C=CCC(F)(F)C(O)C(CC(C)C)NC(=O)c1ccccc1 (stereo unspecified)
93 | 130 to 132 | CC(=O)N1CCC(c2nn(-c3ccccc3)c3cc(Cl)ccc23)CC1
94 | 88 to 90 | COC(=O)c1nc(Oc2ccccc2)c(Cl)c(N)c1Cl
95 | 160 to 162 | COC(=O)Nc1ccc(NC(=O)CBr)c([N+](=O)[O-])c1
96 | 65 to 67 | O=C(CCC1CCN(Cc2ccccc2)CC1)c1ccc(F)cc1
97 | 172 to 174 | CN(C)CCN(C)C(=O)Cn1nc(-c2ccccc2O)nc1-c1ccccc1O
98 | 286 to 287 | COc1ccc(-c2coc(-c3ccc(C(=O)O)cc3)n2)cc1
99 | 40 to 42 | CCCCC(CC)COC(=O)c1cccc(S(N)(=O)=O)c1 (stereo unspecified)
100 | 56 to 57 | OC(CCl)(c1ccccc1)c1ccccc1
101 | 118 to 119 | CC(Cl)C(=O)Oc1coccc1=S (stereo unspecified)
